Measured values taken from the METLIN SMRT retention time set (Domingo-Almenara et al. 2019).

Assay: gradient 5% acetonitrile 3 min, to 50% in 2 min, to 85% in 15 min, held 3 min, 100 µL/min
Conditions: column: Zorbax Extend-C18 2.1 x 50 mm; eluents: water / acetonitrile, 0.1% formic acid
Method in brief: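 In both positive and negative ionization mode, a quadrupole time-of-flight mass spectrometer coupled to HPLC analyzed pure standards run in mixtures of ~100 molecules. The Zorbax Extend-C18 column (2.1 × 50 mm, 1.8 μm) was operated at 100 μL/min with water and acetonitrile, each containing 0.1% formic acid. The dead volume was 40 μL and the dwell volume 900 μL. Retention time came from adduct peaks that were computationally picked and individually inspected by hand.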

In order of falling RP-LC retention time:
1. CCOc1cccc(-c2noc(Cn3cnc4c(cnn4-c4ccc(OC)cc4)c3=O)n2)c1  1090 s
2. Fc1ccc(-c2nnc(Cc3nc(-c4cccc(Cl)c4)no3)o2)cc1  1070 s
3. O=S(=O)(c1ccc(-c2noc(-c3ccccc3F)n2)cc1)N1CCOCC1  1030 s
4. CCOc1ccc(CC(=O)N2CCCC2c2nc(-c3ccccc3)no2)cc1OCC (configuration not stated)  1010 s
5. CC1(C(=O)NCc2ccccc2)CCN(S(=O)(=O)c2ccccc2C(F)(F)F)CC1  970 s
6. COc1ccccc1N1CCN(c2cc(SCC(=O)Nc3ccc(F)cc3C)ncn2)CC1  959 s
7. O=C(COc1ccc(F)cc1)N1CCN(C(=O)c2nnn3c2COC(c2ccc(Cl)cc2)C3)CC1 (configuration not stated)  937 s
8. Cc1ccc(S(=O)(=O)N2C(=O)CCC2C(=O)Nc2cccc3ccccc23)cc1 (configuration not stated)  933 s
9. O=c1c2cc(-c3cccs3)nn2ccn1CC(O)c1cccc(Cl)c1 (configuration not stated)  924 s
10. CCOc1ccccc1-c1noc(-c2nn(-c3ccc(C)cc3)ccc2=O)n1  923 s
11. COc1cccc(-c2nnc(Cc3nc(-c4cccc(OC)c4OC)no3)o2)c1  923 s
12. COc1ccc(-c2noc(C3CCCN3C(=O)Nc3ccccc3Cl)n2)cc1 (configuration not stated)  920 s
13. Cc1cc(C)cc(NC(=O)N2CCC(n3cnc4c(Cl)cccc4c3=O)CC2)c1  892 s
14. CCc1ccc(C2=C(C)C(N3CCCN(C(=O)CC(C)C)CC3)=NS2(=O)=O)cc1  874 s
15. COc1ccc(-c2nnc(COc3ccc(NC(=O)c4ccnc(Cl)c4)cc3)o2)cc1  868 s
16. O=C(NCc1cc(-c2ccco2)on1)c1ncc(-c2ccccc2)o1  863 s
17. Cc1cc(=O)n(CC(=O)NCc2ccc(F)cc2Cl)c(N)n1  861 s
18. CC1CCN(C(=O)c2cn(-c3cc(N4CCSCC4)ncn3)cn2)CC1  858 s
19. CCOC(=O)c1sc(NC(=O)c2ccncc2)nc1-c1ccccc1  855 s
20. COc1ccc(C(=O)N2CC(=O)Nc3ccc(F)cc3C2c2ccccc2)c(OC)c1 (configuration not stated)  854 s
21. CCCC(=O)NC1(c2nc(C(C)C)no2)CCCCC1  850 s
22. O=C1[C@H]2CN(Cc3cc(Cl)ccc3F)C[C@H]2C(=O)N1CCc1ccccc1  840 s
23. Cc1oc2ncn(CC(=O)N3CCCc4ccccc43)c(=O)c2c1C  838 s
24. COc1ccc(-c2c(C)noc2NC(C)=O)cc1S(=O)(=O)Nc1ccc(C)cc1Br  832 s
25. Cc1csc(-c2ccc(N3CCN(C(=O)c4ccc5c(c4)OCO5)CC3)nc2)n1  791 s
26. Cc1cc(S(=O)(=O)N2CCCC(Cn3cnc4cccnc43)C2)ccc1F (configuration not stated)  787 s
27. Cc1noc(C2CN(C(=O)Nc3ccc(F)c(Cl)c3)CC23CCOCC3)n1 (configuration not stated)  783 s
28. COc1cccc(-c2cc(C(=O)N3CCN(c4ccccc4F)CC3)n(C)n2)c1  772 s
29. CC(C)c1nnc(-c2cccnc2N2CCN(C(=O)c3ccc4c(c3)OCO4)CC2)o1  759 s
30. CCc1nnc(-c2cc(NS(C)(=O)=O)c(C)s2)o1  747 s
31. COc1ccc2nc(NC3=NCN(Cc4ccccc4)CN3)nc(C)c2c1  746 s
32. O=C(NCc1ccc(F)cc1)C1CCN(S(=O)(=O)c2ccc3[nH]c(=O)sc3c2)CC1  742 s
33. CCSc1nnc(-c2nn(C)c3c2CN(C(=O)c2ccccc2F)CC3)n1C  732 s
34. Cc1nn(C2CCS(=O)(=O)C2)c(C)c1N1CCN(C(=O)C(C)Oc2ccccc2)CC1 (configuration not stated)  731 s
35. Cn1nc(C(=O)N2CCCC(C(=O)Nc3ccccc3)C2)c2c1CCN(C(=O)c1cccs1)C2 (configuration not stated)  730 s
36. Cc1ccc(NC(=O)c2[nH]c3cc(C)sc3c2CN2CCOCC2)c(F)c1  728 s
37. Cn1nc(CN(C(=O)c2ccc(F)cc2)c2ccccc2)c2c1CCN(S(C)(=O)=O)C2  721 s
38. O=C([C@@H]1CC(F)(F)CN1C(=O)CCn1c(=O)oc2ccccc21)N1CCCC1  718 s
39. O=C(c1nnn(-c2ccccc2Cl)c1-c1ccncc1)N1CCCC1  716 s
40. C=CCNC(=O)N1CCCN(C2=NS(=O)(=O)C(c3ccccc3)=C2C)CC1  713 s
41. CCOc1cc(C2C(C(=O)N3CCCCC3)=C(C)NC3=C2C(=O)CCC3)ccc1OC(C)=O (configuration not stated)  710 s
42. O=C(NCCc1c[nH]c2ccccc12)C1CCN(c2nnc(N3CCCCC3=O)s2)CC1  709 s
43. COc1ccc(NC(=O)Cc2csc3nc(-c4ccccc4)cn23)cc1OC  703 s
44. CCn1ncc2ccc(C(=O)NC(C)C)cc21  702 s
45. CCOC(=O)C(=O)NCC1CCCN1S(=O)(=O)c1ccc(OC)cc1 (configuration not stated)  700 s
46. Cc1ccc(NC(=O)Nc2ccc3nnc(C)n3c2)c(C)c1  695 s
47. O=C(c1ccc(OCC2CCCN(C(=O)c3ccoc3)C2)cc1)N1CCOCC1 (configuration not stated)  690 s
48. Cc1c(-c2noc(C(=O)NCCN(C)C)n2)oc2c(C)cccc12  676 s
49. c1cc(CN2CC(Oc3ccc(-c4noc(C5CCOCC5)n4)cc3)C2)cs1  671 s
50. COc1ccccc1CC(=O)Nc1cnc(C)nc1  664 s
51. CC(Oc1ccccc1F)C(=O)NCCn1nc(-n2cccn2)ccc1=O (configuration not stated)  660 s
52. CCC(C)NC(=O)CCc1c(-c2ccc(Br)cc2)nc2ccccn12 (configuration not stated)  657 s
53. NC(=O)C1CCN(C2CC(=O)N(c3ccccc3Sc3ccccc3)C2=O)CC1 (configuration not stated)  650 s
54. COc1ccc(CNC(=O)Cn2cc(-c3nnc(C)o3)ccc2=O)cc1  635 s
55. Cc1nc(Nc2ccc(Br)cn2)sc1C(=O)NCCN1CCCC1  628 s
56. CC(=O)Nc1ccc2nc(-c3ccc(Cl)cc3)cc(OCC(N)=O)c2c1  621 s
57. CCOC(=O)c1noc2ncnc(NCCCN3CCN(c4cccc(C)c4)C(C)C3)c12 (configuration not stated)  619 s
58. CCOc1ccc(CNCCSc2nnnn2C)cc1Cl  618 s
59. Oc1ccccc1CN1CCN(c2cc(-c3ccccc3)[nH]n2)CC1  610 s
60. O=C(NCCCN1CCOCC1)c1ccc(CS(=O)Cc2cccc(Cl)c2)o1 (configuration not stated)  610 s
61. O=C(Cn1nc(Cc2cccnc2)c2ccccc2c1=O)Nc1ccc(Cl)cn1  608 s
62. CC(=O)Nc1ccc(S(=O)(=O)N2CCC(CN3CCC(C)CC3)CC2)cc1  608 s
63. Cc1nn(C)c(C)c1CCN(C)c1nc(C2CC2)nc2c1CCC2  604 s
64. Cc1ccc(NC(=O)N2CCCC2c2nc(-c3ccccc3C)no2)cc1 (configuration not stated)  598 s
65. CC(C)CCN1C[C@@H](CO)[C@H](c2nc(-c3cccnc3)no2)C1  583 s
66. Cc1nc(-c2ccnc(N3CCCC3)c2)no1  572 s
67. O=C(NCCCN1CCCCC1)c1cc2n(n1)CCCN(Cc1ccccc1)C2=O  569 s
